# Data published in patent US8269000B2, “Substituted pyrimidine and triazine compounds” (Gruenenthal GmbH, priority 2008, dated 2012).
# Biological target: T1, rat B1R (Rattus norvegicus, UniProt P97583)
# T1 construct: expressed in transfected cells; host or cells: CHO K1 cells
# T1 sequence (P97583 1-337): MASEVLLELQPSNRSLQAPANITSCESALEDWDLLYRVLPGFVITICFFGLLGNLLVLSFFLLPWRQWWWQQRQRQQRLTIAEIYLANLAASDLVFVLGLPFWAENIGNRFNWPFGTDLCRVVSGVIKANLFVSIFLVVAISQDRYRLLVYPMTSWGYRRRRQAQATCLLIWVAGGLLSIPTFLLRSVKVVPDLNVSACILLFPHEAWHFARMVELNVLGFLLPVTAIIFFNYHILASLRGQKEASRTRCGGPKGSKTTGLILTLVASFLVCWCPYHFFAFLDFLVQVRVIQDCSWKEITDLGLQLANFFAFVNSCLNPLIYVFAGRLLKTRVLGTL
# Assay: FLIPR Ca2+ functional study on bradykinin receptor 1 (rB1R CHO K1 cells)
# Assay type: cell-based
# Conditions: % inhibition rat B1R at 10 μM
# Outline: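 Antagonism was calculated as % of maximal inhibition of the Ca2+ rise triggered by agonist at EC80 (Lys-Des-Arg9-bradykinin for hB1R, Des-Arg9-bradykinin for rB1R), added 10-20 min after test compound (10 μM or serial dilutions for IC50) to Fluo-4-loaded transfected CHO K1 cells on FLIPR. Duplicates or triplicates, ≥2 independent runs.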
row,SMILES,% inh. (rat B1R) 10 μM
1,"COc1cc(C)c(S(=O)(=O)N2CCC[C@@H]2COc2ccnc(N3CCCN(Cc4ccccn4)CC3)n2)c(C)c1 [H_CC-043, 1-[4-[[(2R)-1-[(4-methoxy-2,6-dimethyl-phenyl)sulfonyl]-pyrrolidin-2-yl]-methoxy]-pyrimidin-2-yl]-4-(pyridin-2-yl-methyl)-[1,4]diazepam]",80%
2,COc1cc(C)c(S(=O)(=O)N2CCC[C@H]2COc2ccnc(N3CCC(c4nc(-c5ccncc5)no4)CC3)n2)c(C)c1 [H_CC-048],63%

# Same assay, conditions: CHO-K1, % inhibition rat B1R at 10 μM, read-out: % inh. (rat B1R) 10 μM
row,SMILES,inhibition at 10 µM
1,"COc1cc(C)c(S(=O)(=O)N(C)C(COc2ccnc(N3CCN(c4ccncc4)CC3)n2)c2ccccc2)c(C)c1 (stereo not shown) [H_CC-036, 4-methoxy-N,2,6-trimethyl-N-[1-phenyl-2-[[2-[4-(4-pyridyl)-1-piperazinyl]-4-pyrimidinyl]oxy]ethyl]benzenesulfonamide]",71%
2,"CN(C(COc1ccnc(N2CCC(OCCN3CCCC3)(c3cccnc3)CC2)n1)c1ccccc1)S(=O)(=O)c1ccc2ccccc2c1 (stereo not shown) [H_CC-038, N-methyl-N-[1-phenyl-2-[[2-[4-(3-pyridyl)-4-(2-1-pyrrolidinylethoxy)-1-piperidinyl]-4-pyrimidinyl]oxy]ethyl]-2-naphthalenesulfonamide]",70%
3,"COc1cc(C)c(S(=O)(=O)N(C)CCOc2ccnc(N3CCC4(CCN(Cc5ccc(F)cc5)C4=O)CC3)n2)c(C)c1 [H_CC-039, N-[2-[[2-[3-[(4-fluorophenyl)methyl]-4-oxo-3,8-diazaspiro[4.5]decan-8-yl]-4-pyrimidinyl]oxy]ethyl]-4-methoxy-N,2,6-trimethylbenzenesulfonamide]",50%
4,"COc1cc(C)c(S(=O)(=O)N2CCC[C@H]2COc2ccnc(N3CCC(OCCN4CCCC4)(c4cccnc4)CC3)n2)c(C)c1 [H_CC-040, 4-[[(2S)-1-(4-methoxy-2,6-dimethylphenyl)sulfonyl-2-pyrrolidinyl]methoxy]-2-[4-(3-pyridyl)-4-(2-1-pyrrolidinylethoxy)-1-piperidinyl]pyrimidine]",51%
5,"COc1cc(C)c(S(=O)(=O)N2CCCC(Oc3ccnc(N4CCC(CCN5CCCCC5)CC4)n3)C2)c(C)c1 (stereo not shown) [H_CC-041, 4-[[1-(4-methoxy-2,6-dimethylphenyl)sulfonyl-3-piperidinyl]oxy]-2-[4-[2-(1-piperidyl)ethyl]-1-piperidinyl]pyrimidine]",48%
6,"COc1cc(C)c(S(=O)(=O)N2CCCCC2COc2ccnc(N3CCCN(Cc4ccccn4)CC3)n2)c(C)c1 (stereo not shown) [H_CC-042, 1-[4-[[1-[(4-methoxy-2,6-dimethyl-phenyl)sulfonyl]-piperidin-2-yl]-methoxy]-pyrimidin-2-yl]-4-(pyridin-2-yl-methyl)-[1,4]diazepan]",61%
7,"COc1cc(C)c(S(=O)(=O)N2CCCCC2COc2ccnc(N(C)CCN3CCC(c4ccccc4)(N(C)C)CC3)n2)c(C)c1 (stereo not shown) [H_CC-044, 2-(4-dimethylamino-4-phenyl-piperidin-1-yl)-ethyl-[4-[[1-[(4-methoxy-2,6-dimethyl-phenyl)sulfonyl]-piperidin-2-yl]-methoxy]-pyrimidin-2-yl]-methyl-amine]",102%
8,"CCCCC1(N(C)C)CCN(CCN(C)c2nccc(OCC3CCCCN3S(=O)(=O)c3c(C)cc(OC)cc3C)n2)CC1 (stereo not shown) [H_CC-045, 2-(4-butyl-4-dimethylamino-piperidin-1-yl)-ethyl-[4-[[1-[(4-methoxy-2,6-dimethyl-phenyl)sulfonyl]-piperidin-2-yl]-methoxy]-pyrimidin-2-yl]-methyl-amine]",96%
9,"COc1cc(C)c(S(=O)(=O)N2CCC[C@H]2COc2ccnc(N(C)CCCN3CCC(c4ccccc4)(N(C)C)CC3)n2)c(C)c1 [H_CC-046, 3-(4-dimethylamino-4-phenyl-piperidin-1-yl)-propyl-[4-[[(2S)-1-[(4-methoxy-2,6-dimethyl-phenyl)sulfonyl]-pyrrolidin-2-yl]-methoxy]-pyrimidin-2-yl]-methyl-amine]",89%
10,"COc1cc(C)c(S(=O)(=O)N2CCC[C@H]2COc2ccnc(N3CCC(O)(c4ccccn4)CC3)n2)c(C)c1 [H_CC-047, 1-[4-[[(2S)-1-[(4-methoxy-2,6-dimethyl-phenyl)sulfonyl]-pyrrolidin-2-yl]-methoxy]-pyrimidin-2-yl]-4-pyridin-2-yl-piperidin-4-ol]",85%
11,"COc1cc(C)c(S(=O)(=O)N2CCCCC2COc2ccnc(N(C)CCN3CCC(Oc4ccncc4)CC3)n2)c(C)c1 (stereo not shown) [H_CC-049, [4-[[1-[(4-methoxy-2,6-dimethyl-phenyl)sulfonyl]-piperidin-2-yl]-methoxy]-pyrimidin-2-yl]-methyl-[2-(4-pyridin-4-yloxy-piperidin-1-yl)-ethyl]amine]",94%
12,"COc1cc(C)c(S(=O)(=O)N2CCCCC2COc2ccnc(N3[C@@H]4CC[C@H]3CC(Oc3ccncc3)C4)n2)c(C)c1 (stereo partly drawn) [H_CC-050, (1S,5R)-8-[4-[[1-[(4-methoxy-2,6-dimethyl-phenyl)sulfonyl]-piperidin-2-yl]-methoxy]-pyrimidin-2-yl]-3-pyridin-4-yloxy-8-azabicyclo[3.2.1]octane]",74%
13,"COc1cc(C)c(S(=O)(=O)N2CCC[C@H]2COc2ccnc(N(C)CCN3CCC(Oc4ccncc4)CC3)n2)c(C)c1 [H_CC-051, [4-[[(2S)-1-[(4-methoxy-2,6-dimethyl-phenyl)sulfonyl]-pyrrolidin-2-yl]-methoxy]-pyrimidin-2-yl]-methyl-[2-(4-pyridin-4-yloxy-piperidin-1-yl)-ethyl]amine]",99%
14,"CCCCC1(N(C)C)CCN(CCN(C)c2nccc(OC3CCCN(S(=O)(=O)c4c(C)cc(OC)cc4C)C3)n2)CC1 (stereo not shown) [H_CC-053, 2-(4-butyl-4-dimethylamino-piperidin-1-yl)-ethyl-[4-[1-[(4-methoxy-2,6-dimethyl-phenyl)sulfonyl]-piperidin-3-yl]oxy-pyrimidin-2-yl]-methyl-amine]",95%
15,"COc1cc(C)c(S(=O)(=O)N2CCC[C@H]2COc2ccnc(N(C)CCN3CCC(c4ccccc4)(N(C)C)CC3)n2)c(C)c1 [H_CC-054, 2-(4-dimethylamino-4-phenyl-piperidin-1-yl)-ethyl-[4-[[(2S)-1-[(4-methoxy-2,6-dimethyl-phenyl)sulfonyl]-pyrrolidin-2-yl]-methoxy]-pyrimidin-2-yl]-methyl-amine]",83%
16,"COc1cc(C)c(S(=O)(=O)N2CCC[C@H]2COc2ccnc(N(C)CCN3CCC(c4ccccc4)(N4CCCC4)CC3)n2)c(C)c1 [H_CC-055, [4-[[(2S)-1-[(4-methoxy-2,6-dimethyl-phenyl)sulfonyl]-pyrrolidin-2-yl]-methoxy]-pyrimidin-2-yl]-methyl-[2-(4-phenyl-4-pyrrolidin-1-yl-piperidin-1-yl)-ethyl]-amine]",92%
17,"CCCCC1(N(C)C)CCN(CCN(C)c2nccc(OC[C@@H]3CCCN3S(=O)(=O)c3c(C)cc(OC)cc3C)n2)CC1 [H_CC-056, 2-(4-butyl-4-dimethylamino-piperidin-1-yl)-ethyl-[4-[[(2S)-1-[(4-methoxy-2,6-dimethyl-phenyl)sulfonyl]-pyrrolidin-2-yl]-methoxy]-pyrimidin-2-yl]-methyl-amine]",98%
18,"COc1cc(C)c(S(=O)(=O)N2c3ccccc3C[C@H]2COc2ccnc(N(C)CCN3CCC(c4ccccc4)(N(C)C)CC3)n2)c(C)c1 [H_CC-057, 2-(4-dimethylamino-4-phenyl-piperidin-1-yl)-ethyl-[4-[[(2S)-1-[(4-methoxy-2,6-dimethyl-phenyl)sulfonyl]-2,3-dihydro-1H-indol-2-yl]-methoxy]-pyrimidin-2-yl]-methyl-amine]",98%
19,"CCCCC1(N(C)C)CCN(CCN(C)c2nccc(OC[C@@H]3Cc4ccccc4N3S(=O)(=O)c3c(C)cc(OC)cc3C)n2)CC1 [H_CC-058, 2-(4-butyl-4-dimethylamino-piperidin-1-yl)-ethyl-[4-[[(2S)-1-[(4-methoxy-2,6-dimethyl-phenyl)sulfonyl]-2,3-dihydro-1H-indol-2-yl]-methoxy]-pyrimidin-2-yl]-methyl-amine]",97%
20,"COc1cc(C)c(S(=O)(=O)N(C)CCOc2ccnc(N(C)CCN3CCC(c4ccccc4)(N4CCCC4)CC3)n2)c(C)c1 [H_CC-059, 4-methoxy-N,2,6-trimethyl-N-[2-[2-[methyl-[2-(4-phenyl-4-pyrrolidin-1-yl-piperidin-1-yl)-ethyl]-amino]-pyrimidin-4-yl]oxy-ethyl]-benzenesulfonic acid amide]",91%
21,"CCCCC1(N(C)C)CCN(CCN(C)c2nccc(OCCN(C)S(=O)(=O)c3c(C)cc(OC)cc3C)n2)CC1 [H_CC-060, N-[2-[2-[2-(4-butyl-4-dimethylamino-piperidin-1-yl)-ethyl-methyl-amino]pyrimidin-4-yl]oxy-ethyl]-4-methoxy-N,2,6-trimethyl-benzenesulfonic acid amide]",102%
22,"COc1cc(C)c(S(=O)(=O)N2CCCCC2COc2ccnc(N(C)CCCN3CCC(c4ccccc4)(N(C)C)CC3)n2)c(C)c1 (stereo not shown) [H_CC-061, 3-(4-dimethylamino-4-phenyl-piperidin-1-yl)-propyl-[4-[[1-[(4-methoxy-2,6-dimethyl-phenyl)sulfonyl]-piperidin-2-yl]-methoxy]-pyrimidin-2-yl]-methyl-amine]",105%
23,"CCCCC1(N(C)C)CCN(c2nccc(OCC3CCCCN3S(=O)(=O)c3c(C)cc(OC)cc3C)n2)CC1 (stereo not shown) [H_CC-062, [4-butyl-1-[4-[[1-[(4-methoxy-2,6-dimethyl-phenyl)sulfonyl]-piperidin-2-yl]-methoxy]-pyrimidin-2-yl]-piperidin-4-yl]-dimethyl-amine]",73%
